Assay [1] relates to SOCE (store operated calcium entry) in CHO cells. In words: Assay of SOCE (store operated calcium entry)-inhibiting action. Particulars: Cricetulus griseus, CHO, CHO cells, thapsigargin, read-out: SOCE level (percentage of inhibition); for inhibition at 10 µM: test compound 10 μmol; for inhibition at 30 µM: test compound 30 μmol; for inhibition at 100 µM: test compound 100 μmol. Format: cell-based, Chinese hamster. Put shortly: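 CHO cells in calcium-free BSS received compound, then 1 μM thapsigargin 2 min later to deplete stores; after 9 min, 2 mM calcium chloride (final) added. Percent inhibition of the rise in intracellular calcium determined at various compound concentrations.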

The test system of assay [2] is IICR (IP3 induced calcium release) in CHO cells. In words: Assay of IICR (IP3 induced calcium release)-inhibiting action. Format: cell-based, Chinese hamster. The conditions noted are these: Cricetulus griseus, CHO, CHO cells, 10 μM ATP, read-out: IICR level (percentage of inhibition); for inhibition at 10 µM: test compound 10 μmol; for inhibition at 30 µM: test compound 30 μmol; for inhibition at 100 µM: test compound 100 μmol. Put shortly: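 CHO cell medium replaced with calcium-containing BSS; compound added 1 min later, then 10 μM ATP after a further 2 min. Percent inhibition of the ATP-evoked rise in intracellular calcium determined at each compound concentration.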

`CCCCN(CCC(=O)c1ccc(Cl)s1)Cc1ccccc1` [Example 374, 2-(N-butyl-N-benzyl)aminoethyl-5-chloro-2-thienylketone]: in assay [1], the inhibition at 10 µM amounted to 0%, the inhibition at 30 µM worked out at 0% and the inhibition at 100 µM amounted to 53%. Moreover, in assay [2], the inhibition at 10 µM is 0%, the inhibition at 30 µM was 8% and the inhibition at 100 µM stood at 0%.
With `CCCCN(CCC(=O)c1ccc(Br)cc1)Cc1ccccc1` [Example 375, 2-(N-butyl-N-benzyl)aminoethyl-4-bromophenylketone], in assay [1], the inhibition at 10 µM worked out at 4%, the inhibition at 30 µM turned out to be 0% and the inhibition at 100 µM was found to be 40%. Also, in assay [2], the inhibition at 10 µM was 0%, the inhibition at 30 µM was 33% and the inhibition at 100 µM was found to be 0%.
For `CCCCN(CCC(=O)c1ccncc1)Cc1ccccc1` [Example 376, 2-(N-butyl-N-benzyl)aminoethyl-4-pyridylketone], in assay [1], the inhibition at 10 µM worked out at 21%, the inhibition at 30 µM was found to be 0% and the inhibition at 100 µM worked out at 27%. Moreover, in assay [2], the inhibition at 10 µM turned out to be 18%, the inhibition at 30 µM turned out to be 84% and the inhibition at 100 µM was found to be 51%.
For `CCCCN(CCC(=O)c1ccco1)Cc1ccccc1` [Example 377, 2-(N-butyl-N-benzyl)aminoethyl-2-furylketone], in assay [1], the inhibition at 10 µM amounted to 21%, the inhibition at 30 µM was determined as 0% and the inhibition at 100 µM was determined as 27%. Moreover, in assay [2], the inhibition at 10 µM amounted to 22%, the inhibition at 30 µM stood at 20% and the inhibition at 100 µM was 36%.
As for `CCCCN(CCC(=O)c1ccc2ccccc2c1)Cc1ccccc1` [Example 378, 2-(N-butyl-N-benzyl)aminoethyl-2-naphthylketone], in assay [1], the inhibition at 10 µM was 0%, the inhibition at 30 µM was 0% and the inhibition at 100 µM came out at 41%. In addition, in assay [2], the inhibition at 10 µM is 50%, the inhibition at 30 µM came to 24% and the inhibition at 100 µM was determined as 46%.
On to `O=C(CCN(CCO)Cc1ccccc1)c1ccc(I)s1` [Example 379, 2-(N-2-hydroxyethyl-N-benzyl)aminoethyl-5-iodo-2-thienylketone], for which, in assay [1], the inhibition at 10 µM was found to be 20%, the inhibition at 30 µM turned out to be 40% and the inhibition at 100 µM stood at 50%. Moreover, in assay [2], the inhibition at 10 µM worked out at 50%, the inhibition at 30 µM amounted to 24% and the inhibition at 100 µM stood at 46%.
On to `O=C(CCNCc1ccccc1)c1ccc(Br)s1` [Example 382, 2-N-benzylaminoethyl-5-bromo-2-thienylketone], for which, in assay [1], the inhibition at 10 µM was 0%, the inhibition at 30 µM is 10% and the inhibition at 100 µM turned out to be 20%. In addition, in assay [2], the inhibition at 10 µM was 0%, the inhibition at 30 µM came out at 10% and the inhibition at 100 µM is 50%.
With `CCCCCCN(CCCCCC)CCC(=O)c1ccc(Br)s1` [Example 383, 2-(N,N-dihexyl)aminoethyl-5-bromo-2-thienylketone], in assay [1], the inhibition at 10 µM turned out to be 25%, the inhibition at 30 µM is 16% and the inhibition at 100 µM came out at 46%. In assay [2], the inhibition at 10 µM worked out at 0%, the inhibition at 30 µM was determined as 5% and the inhibition at 100 µM came out at 0%.
`CC(C)CN(CCC(=O)c1ccc(Br)s1)CC(C)C` [Example 384, 2-(N,N-diisobutyl)aminoethyl-5-bromo-2-thienylketone]: in assay [1], the inhibition at 10 µM was found to be 0%, the inhibition at 30 µM stood at 10% and the inhibition at 100 µM was found to be 100%. In assay [2], the inhibition at 10 µM was 0%, the inhibition at 30 µM came out at 35% and the inhibition at 100 µM came to 70%.
On to `CCCCCCN(CCCCCC)CCC(=O)c1ccc(Cl)s1` [Example 385, 2-(N,N-dihexyl)aminoethyl-5-chloro-2-thienylketone], for which, in assay [1], the inhibition at 10 µM was 0%, the inhibition at 30 µM was determined as 95% and the inhibition at 100 µM amounted to 53%. Further, in assay [2], the inhibition at 10 µM came to 0%, the inhibition at 30 µM came out at 14% and the inhibition at 100 µM is 0%.
For the compound `N[C@@H](CSSC[C@@H](C(=O)O)N(CCC(=O)c1ccc(Cl)s1)CCC(=O)c1ccc(Cl)s1)C(=O)O` [Example 387, N,N-bis(2-(5-chloro-2-thiophenoyl)ethyl)cystine], in assay [1], the inhibition at 10 µM was 20%, the inhibition at 30 µM came to 40% and the inhibition at 100 µM is 50%. Also, in assay [2], the inhibition at 10 µM was 0%, the inhibition at 30 µM was determined as 0% and the inhibition at 100 µM amounted to 70%.
Turning to `NCCSSCCN(CCC(=O)c1ccc(I)cc1)CCC(=O)c1ccc(I)cc1` [Example 388, N,N-bis(4-iodobenzoylethyl)cystamine], in assay [1], the inhibition at 10 µM is 20%, the inhibition at 30 µM came out at 40% and the inhibition at 100 µM turned out to be 50%. For the same compound, in assay [2], the inhibition at 10 µM stood at 0%, the inhibition at 30 µM worked out at 0% and the inhibition at 100 µM worked out at 70%.
As for `CC(C)N(CCC(=O)c1ccc(I)s1)Cc1ccccc1` [Example 390, 2-(N-isopropyl-N-benzyl)aminoethyl-5-iodo-2-thienylketone], in assay [1], the inhibition at 10 µM is 20%, the inhibition at 30 µM is 40% and the inhibition at 100 µM came out at 50%. In addition, in assay [2], the inhibition at 10 µM amounted to 0%, the inhibition at 30 µM turned out to be 0% and the inhibition at 100 µM stood at 70%.
On to `CC(C)N(CCC(=O)c1ccc(Br)s1)C(C)C` [Example 395, 2-diisopropylaminoethyl-5-bromo-2-thienylketone], for which, in assay [1], the inhibition at 10 µM stood at 20%, the inhibition at 30 µM worked out at 40% and the inhibition at 100 µM stood at 50%. Moreover, in assay [2], the inhibition at 10 µM amounted to 14%, the inhibition at 30 µM worked out at 67% and the inhibition at 100 µM is 83%.
On to `CC(C)N(CCC(=O)c1ccc(Cl)s1)C(C)C` [Example 396, 2-diisopropylaminoethyl-5-chloro-2-thienylketone], for which, in assay [1], the inhibition at 10 µM came to 20%, the inhibition at 30 µM was 40% and the inhibition at 100 µM worked out at 50%. Moreover, in assay [2], the inhibition at 10 µM is 2%, the inhibition at 30 µM was found to be 72% and the inhibition at 100 µM stood at 83%.
Take `CC(C)N(CCC(=O)c1ccncc1)C(C)C` [Example 397, 2-diisopropylaminoethyl-4-pyridylketone]: in assay [1], the inhibition at 10 µM is 20%, the inhibition at 30 µM came to 40% and the inhibition at 100 µM was found to be 50%. Moreover, in assay [2], the inhibition at 10 µM is 0%, the inhibition at 30 µM worked out at 0% and the inhibition at 100 µM worked out at 10%.
On to `N#Cc1ccc(C(=O)CCNCCSSCCNCCC(=O)c2ccc(C#N)cc2)cc1` [Example 398], for which, in assay [1], the inhibition at 10 µM was 20%, the inhibition at 30 µM turned out to be 40% and the inhibition at 100 µM stood at 50%. Further, in assay [2], the inhibition at 10 µM turned out to be 1%, the inhibition at 30 µM stood at 44% and the inhibition at 100 µM was determined as 80%.
On to `COC(=O)C(CSSCC(NCCC(=O)c1ccc(C#N)cc1)C(=O)OC)NCCC(=O)c1ccc(C#N)cc1` (stereo not drawn) [Example 399, N,N-bis(4-cyanobenzoylethyl)cystinemethylester], for which, in assay [1], the inhibition at 10 µM was determined as 20%, the inhibition at 30 µM turned out to be 40% and the inhibition at 100 µM is 50%. In addition, in assay [2], the inhibition at 10 µM was 0%, the inhibition at 30 µM was 0% and the inhibition at 100 µM was 70%.
With `COC(=O)C(CSSCC(NCCC(=O)c1nccs1)C(=O)OC)NCCC(=O)c1nccs1` (stereo not drawn) [Example 400], in assay [1], the inhibition at 10 µM came to 20%, the inhibition at 30 µM is 40% and the inhibition at 100 µM turned out to be 50%. Further, in assay [2], the inhibition at 10 µM was determined as 19%, the inhibition at 30 µM came out at 0% and the inhibition at 100 µM came out at 13%.
Turning to `COC(=O)C(CSSCC(NCCC(=O)c1ccco1)C(=O)OC)NCCC(=O)c1ccco1` (stereo not drawn) [Example 401, N,N-bis(2-furoylethyl)cystinemethylester], in assay [1], the inhibition at 10 µM worked out at 20%, the inhibition at 30 µM came out at 40% and the inhibition at 100 µM was found to be 50%. Besides, in assay [2], the inhibition at 10 µM came out at 31%, the inhibition at 30 µM came to 1% and the inhibition at 100 µM stood at 57%.
For the compound `COC(=O)C(CSSCC(NCCC(=O)c1cnccn1)C(=O)OC)NCCC(=O)c1cnccn1` (stereo not drawn) [Example 402, N,N-bis(2-pyrazinoylethyl)cystinemethylester], in assay [1], the inhibition at 10 µM was found to be 20%, the inhibition at 30 µM worked out at 40% and the inhibition at 100 µM was 50%. Besides, in assay [2], the inhibition at 10 µM was found to be 39%, the inhibition at 30 µM was 12% and the inhibition at 100 µM amounted to 28%.
For the compound `COC(=O)C(CSSCC(NCCC(=O)c1ccc(C)s1)C(=O)OC)NCCC(=O)c1ccc(C)s1` (stereo not drawn) [Example 403, N,N-bis(2-(5-methyl-2-thiophenoyl)ethyl)cystinemethylester], in assay [1], the inhibition at 10 µM was found to be 20%, the inhibition at 30 µM came to 40% and the inhibition at 100 µM amounted to 50%. Also, in assay [2], the inhibition at 10 µM was determined as 57%, the inhibition at 30 µM was 17% and the inhibition at 100 µM was 83%.
